Measured values published in patent EP2351737A1, “3-Amino-1-arylpropyl indoles and aza-substituted indoles” (F. Hoffmann-La Roche AG, priority 2005, dated 2007).
Counter-ions that a name gives are not always drawn.

Experiments:
[1] = biological target: Human Norepinephrine Transporter (hNET) (Homo sapiens, UniProt P23975); test: Human Norepinephrine Transporter (hNET) Scintillation Proximity Assay (SPA), competition with [3H]-Nisoxetine; conditions: membranes of HEK-293 cells expressing recombinant hNET, Ki by Cheng-Prusoff; for Ki: pKi NET
Sequence of Human Norepinephrine Transporter (hNET) (P23975 whole entry): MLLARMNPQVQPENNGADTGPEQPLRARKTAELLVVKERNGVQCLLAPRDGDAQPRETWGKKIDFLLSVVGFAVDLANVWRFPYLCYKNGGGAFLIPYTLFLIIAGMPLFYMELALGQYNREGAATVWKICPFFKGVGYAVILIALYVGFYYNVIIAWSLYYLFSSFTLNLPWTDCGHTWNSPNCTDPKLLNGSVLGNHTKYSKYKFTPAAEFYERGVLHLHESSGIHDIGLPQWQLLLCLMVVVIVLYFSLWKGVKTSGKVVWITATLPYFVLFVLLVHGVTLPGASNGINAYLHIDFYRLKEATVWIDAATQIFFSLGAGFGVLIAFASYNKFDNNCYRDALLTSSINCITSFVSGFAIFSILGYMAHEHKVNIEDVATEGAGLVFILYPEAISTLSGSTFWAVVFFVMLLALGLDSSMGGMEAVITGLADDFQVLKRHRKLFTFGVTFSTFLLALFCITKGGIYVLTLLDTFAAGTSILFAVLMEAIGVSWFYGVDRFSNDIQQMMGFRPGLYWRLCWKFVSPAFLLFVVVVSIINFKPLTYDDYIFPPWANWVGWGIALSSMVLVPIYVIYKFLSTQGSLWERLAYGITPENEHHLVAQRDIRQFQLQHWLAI

[2] = biological target: T1, Human Serotonin Transporter (hSERT) (Homo sapiens, UniProt P31645); test: Human Serotonin Transporter (hSERT) Scintillation Proximity Assay (SPA), competition with [3H]-Citalopram; type: binding; conditions: membranes of HEK-293 cells expressing recombinant hSERT, Ki by Cheng-Prusoff; for Ki: read-out: pKi SERT (converted)
T1 construct: expressed in transfected cells; membranes prepared from them
T1 sequence (P31645 whole entry): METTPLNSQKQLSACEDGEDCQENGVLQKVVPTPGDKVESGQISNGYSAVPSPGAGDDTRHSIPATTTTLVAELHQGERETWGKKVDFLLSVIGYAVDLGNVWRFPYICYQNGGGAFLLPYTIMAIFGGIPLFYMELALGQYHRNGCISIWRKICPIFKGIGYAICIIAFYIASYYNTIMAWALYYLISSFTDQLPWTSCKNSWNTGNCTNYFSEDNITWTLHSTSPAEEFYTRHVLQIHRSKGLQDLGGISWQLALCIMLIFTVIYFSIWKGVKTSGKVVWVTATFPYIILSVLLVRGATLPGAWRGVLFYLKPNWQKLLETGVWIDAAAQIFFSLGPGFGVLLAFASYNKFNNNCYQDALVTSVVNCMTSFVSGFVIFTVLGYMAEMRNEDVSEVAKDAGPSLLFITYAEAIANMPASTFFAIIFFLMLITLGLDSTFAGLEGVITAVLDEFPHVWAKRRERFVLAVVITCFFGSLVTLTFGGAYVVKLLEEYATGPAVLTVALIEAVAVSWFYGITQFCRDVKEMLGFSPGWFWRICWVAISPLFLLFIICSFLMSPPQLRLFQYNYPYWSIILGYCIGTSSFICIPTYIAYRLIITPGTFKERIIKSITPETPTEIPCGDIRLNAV

Compound | Ki [1] | Ki [2] | pKi NET [1] | pKi SERT [2]
CNCC[C@H](c1ccccc1)c1cc(C)c2[nH]ncc2c1 [Compound 78, Methyl-[3-(7-methyl-1H-indazol-5-yl)-3-(R)-phenyl-propyl]-amine] | 19.5 nM | 10 nM |  | 
CNCCC(c1ccccc1)c1ccc2[nH]c(C)cc2c1 (stereo not shown) [Compound 7, Methyl-[3-(2-methyl-1H-indol-5-yl)-3-phenyl-propyl]-amine] | 91.2 nM | 11 nM |  | 
CNCCC(c1ccccc1)c1cc(OC)c2cc[nH]c2c1 (stereo not shown) [Compound 30] |  |  | 7.63 | 9.06
CNCCC(c1ccccc1)c1cc(OC)c2[nH]ncc2c1 (stereo not shown) [Compound 75, [3-(7-Methoxy-1H-indazol-5-yl)-3-phenyl-propyl]-methyl-amine] | 6.61 nM | 5.62 nM |  | 
[3-(1H-Indol-6-yl)-3-phenyl-propyl]-methyl-amine [Compound 41] |  |  | 7.63 | 8.01
[3,3-Bis-(1H-indol-5-yl)-propyl]-methyl-amine [Compound 111] |  |  | 9.12 | 7.92
[3-(7-Fluoro-1H-indol-5-yl)-3-(2-methoxy-phenyl)-propyl]-methyl-amine [Compound 101] |  |  | 7.58 | 7.24
CNCCC(c1ccccc1)c1ccc2[nH]ncc2c1 (stereo not shown) [Compound 51, [3-(1H-Indazol-5-yl)-3-phenyl-propyl]-methyl-amine hydrochloride] | 34.7 nM | 15.8 nM |  | 
[3-(1-Methanesulfonyl-1H-indol-5-yl)-3-phenyl-propyl]-methyl-amine hydrochloride [Compound 14] |  |  | 6.57 | 7.55
CNCCC(c1ccccc1)c1ccc2[nH]nc(C)c2c1 (stereo not shown) [Compound 58, Methyl-[3-(3-methyl-1H-indazol-5-yl)-3-phenyl-propyl]-amine] | 191 nM | 42.7 nM |  | 
[3-(7-Fluoro-1H-indol-5-yl)-3-naphthalen-2-yl-propyl]-methyl-amine [Compound 106] |  |  | 7.68 | 8.28
[3-(3-Chloro-1H-indazol-5-yl)-3-phenyl-propyl]-methyl-amine [Compound 57] |  |  | 7.06 | 8.14
5-(3-Methylamino-1-phenyl-propyl)-1H-indole-3-carboxylic acid methylamide [Compound 129] |  |  | 7.72 | 7.18
[3-(4-Methoxy-1H-indol-5-yl)-3-phenyl-propyl]-methyl-amine [Compound 88] |  |  | 7.03 | 7.28
5-(3-Methylamino-1-phenyl-propyl)-1H-indole-3-carbonitrile [Compound 10] |  |  | 7.03 | 9.42
5-(3-Amino-1-phenyl-propyl)-1H-indole-3-carbonitrile [Compound 70] |  |  | 6.39 | 8.74
CNCCC(c1ccccc1)c1cc(C)c2[nH]ncc2c1 (stereo not shown) [Compound 76, Methyl-[3-(7-methyl-1H-indazol-5-yl)-3-phenyl-propyl]-amine] | 25.7 nM | 17.4 nM |  | 

Continued, in another order:

Ki [1] | Ki [2] | Compound | pKi NET [1] | pKi SERT [2]
57.5 nM | 1.02 nM | CNCCC(c1ccccc1)c1ccc2[nH]c(C#N)cc2c1 (stereo not shown) [Compound 128, 5-(3-Methylamino-1-phenyl-propyl)-1H-indole-2-carbonitrile] |  | 
15.1 nM | 21.4 nM | CNCCC(c1ccccc1)c1cc(C(F)(F)F)c2[nH]ncc2c1 (stereo not shown) [Compound 85, Methyl-[3-phenyl-3-(7-trifluoromethyl-1H-indazol-5-yl)-propyl]-amine] |  | 
9.33 nM | 11.2 nM | CNCCC(c1ccc2[nH]ccc2c1)c1nc2ccccc2s1 (stereo not shown) [Compound 140, [3-Benzothiazol-2-yl-3-(1H-indol-5-yl)-propyl]-methyl-amine] |  | 
7.76 nM | 5.89 nM | CNCC[C@H](c1ccccc1)c1cc(Cl)c2[nH]ncc2c1 [Compound 84, [3-(7-Chloro-1H-indazol-5-yl)-3-(R)-phenyl-propyl]-methyl-amine] |  | 
97.7 nM | 85.1 nM | CNCCC(c1ccccc1)c1cc(OC)c2[nH]cc(C#N)c2c1 (stereo not shown) [Compound 96, 7-Methoxy-5-(3-methylamino-1-phenyl-propyl)-1H-indole-3-carbonitrile] |  | 
83.2 nM | 178 nM | CN(C)CCC(c1ccccc1)c1ccc2[nH]ccc2c1 (stereo not shown) [Compound 113, [3-(1H-Indol-5-yl)-3-phenyl-propyl]-dimethyl-amine] |  | 
10.7 nM | 22.4 nM | CNCCC(c1ccccc1)c1ccc2occc2c1 (stereo not shown) [Compound 141, (3-Benzofuran-5-yl-3-phenyl-propyl)-methyl-amine] |  | 
398 nM | 22.9 nM | Cn1cc(C#N)c2cc(C(CCN)c3ccccc3)cc(F)c21 (stereo not shown) [Compound 126, 5-(3-Amino-1-phenyl-propyl)-7-fluoro-1-methyl-1H-indole-3-carbonitrile] |  | 
603 nM | 33.9 nM | CNCCC(c1ccccc1)c1ccc2[nH]cc(C(N)=O)c2c1 (stereo not shown) [Compound 91, 5-(3-Methylamino-1-phenyl-propyl)-1H-indole-3-carboxylic acid amide] |  | 
11.5 nM | 72.4 nM | NCCC(c1ccc2[nH]ccc2c1)c1ccc2[nH]ccc2c1 [Compound 119, 3,3-Bis-(1H-indol-5-yl)-propylamine] |  | 
240 nM | 38 nM | CNCCC(c1ccccc1)c1ccc2[nH]cc(S(=O)(=O)N(C)C)c2c1 (stereo not shown) [Compound 90, 5-(3-Methylamino-1-phenyl-propyl)-1H-indole-3-sulfonic acid dimethylamide] |  | 
28.8 nM | 77.6 nM | CNCCC(c1ccccc1)c1cc2cc[nH]c2cc1F (stereo not shown) [Compound 102, [3-(6-Fluoro-1H-indol-5-yl)-3-phenyl-propyl]-methyl-amine] |  | 
